Laboratory results taken from US5607926A, “Cephalosporin antibiotics” (Microcide Pharmaceuticals, Inc., priority 1995, dated 1997).
Converted amounts (≈) assume the structure as drawn. Read-outs that look alike come from different tables or passages of the source.

Key:
Type in all cases: cell-based
S. aureus ATCC 29213 = experiment: In vitro antibacterial evaluation, MIC by agar dilution, S. aureus ATCC 29213; settings: Staphylococcus aureus, ATCC29213
Method: (§1) The compounds of the invention were evaluated against several β-lactamresistant bacteria strains by determining the minimum inhibitory concentration (MIC, μg/ml) of each compound with respect to each strain. The MIC, the lowest concentration of antibiotic which inhibits growth of the test organism, was determined by the agar dilution method.
(§2) To determine the MIC for bacterial isolates, the test compound was incorporated in a series of two-fold dilutions into liquified Mueller-Hinton agar. Upon solidification, a number of different bacterial strains were spot inoculated with a replicating device onto the agar surface. […] The procedures used in these studies have been standardized by the National Committee for Clinical Laboratory Standards (NCCLS), as per the NCCLS publication entitled METHODS FOR DILUTION ANTIMICROBIAL SUSCEPTIBILITY TESTS (1991), which is incorporated herein by reference.
(§3) Aliquots of antimicrobial agents were prepared in phosphate buffered saline (PBS) at pH 7.2. Tween 20 or DMSO was used as a solubilizing vehicle as needed. Standard methods of vortexing, sonicating and gentle heat were used to facilitate solubilizing the test agent. Typically, the concentration of the stock solution was 10× that of the highest drug concentration tested. A 1.28 mg/mL stock solution was used with a subsequent highest working concentration of 128 μg/mL. Serial two-fold dilutions were done through ≤0.25 μg/mL. Each drug level was tested in duplicate. Two-fold drug dilutions were done in sterile 50 mL tubes with a final drug volume of 5 mL. Upon the addition of 45 mL of molten agar, a 10-fold dilution resulted. Two, 25 mL. plates were then poured into 15×150 mm square Petri plates with grids and allowed to harden.
(§4) A control plate with a reference drug, either cefotaxime, vancomycin or imipenem, was used as the positive growth control. Stock concentrations of reference antibiotics were prepared and frozen at -80° C. Upon preparation, the control plates were sealed and stored in the refrigerator for up to 1 week prior to use; however, imipenem control plates had to be prepared just prior to use. All test plates were used within 24 hours of preparation.
(§5) Satisfactory results were obtained where the inoculum contained about 10^4 colony forming units (cfu) ±0.5 logs. Starting with pure cultures of the test isolates on agar plates, a few isolated colonies were transferred to a tube of nutrient broth and allowed to grow 4-6 hours at 35°-36° C. to reach log-phase growth. Dropwise addition of the broth culture to PBS was done to match a 0.5 McFarland turbidity standard equal to 10^8 cfu/mL. This was further diluted ten-fold in PBS to reach a working inoculum concentration of 10^7 cfu/mL. When 1 μL of the working inoculum was applied to the agar surface a concentration of about 10^4 cfu per spot was obtained.
(§6) Disposable sterile 1 μL loops were used to inoculate test plates, with each isolate in a designated grid on the agar plate. An alternate method of inoculation involved the use of a replica plater, a device with 48 steel pins allowing the simultaneous inoculation of multiple isolates. After the spots had dried, the plates were incubated at 35°-36° C. for 16-20 hours. Endpoints were assessed as the minimum inhibitory concentration (MIC) of antimicrobial agent.

[1] = test system: S. epidermidis ATCC 31432; experiment: In vitro antibacterial evaluation, MIC by agar dilution, S. epidermidis ATCC 31432; settings: Staphylococcus epidermidis, ATCC31432
Method: as §1, §2, §3, §4, §5, §6

[2] = test system: S. aureus 76 (Meth^R)(lac^+); experiment: In vitro antibacterial evaluation, MIC by agar dilution, S. aureus 76; settings: Staphylococcus aureus, read-out: MIC
Method: as §1, §2, §3, §4, §5, §6

[3] = test system: S. aureus Col8A (Meth^S)(lac^-); experiment: In vitro antibacterial evaluation, MIC by agar dilution, S. aureus Col8A; settings: Staphylococcus aureus
Method: as §1, §2, §3, §4, §5, §6
The novel agents of this invention are notable for their enhanced activity against S. aureus Col and Enterococci (E. faecium and E. faecalis). The S. aureus Col strain is a high-level PBP2a producer, whereas S. aureus Col 8A, its isogenic partner, lacks PBP2a. […] Thus, the compounds of the present invention are effective against PBP2a-producing bacteria.

S. haemolyticus (Meth^R) = experiment: In vitro antibacterial evaluation, MIC by agar dilution, S. haemolyticus; settings: Staphylococcus haemolyticus, read-out: MIC
Method: as §1, §2, §3, §4, §5, §6

E. faecium ATCC 35667 = experiment: In vitro antibacterial evaluation, MIC by agar dilution, E. faecium ATCC 35667; settings: Enterococcus faecium, ATCC35667, read-out: MIC
Method: as §1, §2, §3, §4, §5, §6

E. coli ATCC 25922 = experiment: In vitro antibacterial evaluation, MIC by agar dilution, E. coli ATCC 25922; settings: Escherichia coli, ATCC25922, read-out: MIC
Method: as §1, §2, §3, §4, §5, §6

P. aeruginosa ATCC 27853 = experiment: In vitro antibacterial evaluation, MIC by agar dilution, P. aeruginosa ATCC 27853; settings: Pseudomonas aeruginosa, ATCC27853, read-out: MIC
Method: as §1, §2, §3, §4, §5, §6

[4] = S. epidermidis ATCC 31432, read-out: MIC

| Structure (SMILES) | MIC (S. aureus ATCC 29213) [µg/mL] | MIC [1] [µg/mL] | MIC [2] [µg/mL] | MIC [3] [µg/mL] | MIC (S. haemolyticus (Meth^R)) [µg/mL] | MIC (E. faecium ATCC 35667) [µg/mL] | MIC (E. coli ATCC 25922) [µg/mL] | MIC (S. aureus ATCC 29213; S. aureus ATCC 29213, read-out: MIC) [µg/mL] | MIC [1, 4] [µg/mL] | MIC (P. aeruginosa ATCC 27853) [µg/mL] |
| --- | --- | --- | --- | --- | --- | --- | --- | --- | --- | --- |
| O=C(Cc1ccccc1)N[C@@H]1C(=O)N2C(C(=O)O)=C(Sc3ccc(Cl)c(Cl)c3)CS[C@H]12 [Cmpd 18, (7R)-7-[(Phenylacetyl)amino]-3-(3,4-dichlorophenylthio)-3-cephem-4-carboxylic acid] | < 0.25 | < 0.25 | 16 (≈ 32.3 µM) | < 0.25 | 32 (≈ 64.6 µM) | 4 (≈ 8.07 µM) | > 32 | – | – | – |
| COC(=O)c1ccccc1SC1=C(C(=O)O)N2C(=O)[C@@H](NC(=O)Cc3ccccc3)[C@H]2SC1 [Cmpd 19, (7R)-7-[(Phenylacetyl)amino]-3-(o-carbomethoxyphenylthio)-3-cephem-4-carboxylic acid] | < 0.25 | < 0.25 | 16 (≈ 33 µM) | < 0.25 | 32 (≈ 66 µM) | 2 (≈ 4.13 µM) | > 32 | – | – | – |
| O=C(Cc1cccs1)N[C@@H]1C(=O)N2C(C(=O)O)=C(Sc3ccccc3Br)CS[C@H]12 [Cmpd 20, (7R)-7-[(2-Thienylacetyl)amino]-3-(o-bromophenylthio)-3-cephem-4-carboxylic acid] | < 0.25 | < 0.25 | 4 (≈ 7.82 µM) | < 0.25 | 8 (≈ 15.6 µM) | 2 (≈ 3.91 µM) | > 32 | – | – | – |
| O=C(Cc1ccccc1)N[C@@H]1C(=O)N2C(C(=O)O)=C(Sc3cccc4oc5ccccc5c34)CS[C@H]12 [Cmpd 21, (7R)-7-[(Phenylacetyl)amino]-3-(dibenzofuranyl-1-thio)-3-cephem-4-carboxylic acid] | < 0.25 | < 0.25 | 4 (≈ 7.74 µM) | < 0.25 | 32 (≈ 61.9 µM) | 4 (≈ 7.74 µM) | > 32 | – | – | – |
| Nc1nc(/C(=N/O)C(=O)N[C@@H]2C(=O)N3C(C(=O)O)=C(Sc4ccccc4I)CS[C@H]23)cs1 [Cmpd 22, (7R)-7-[(Z)-2-(aminothiazol-4-yl)-2-(hydroxyimino)acetamido]-3-(o-iodophenylthio)-3-cephem-4-carboxylic acid] | – | – | 4 (≈ 6.63 µM) | 0.5 (≈ 0.829 µM) | 4 (≈ 6.63 µM) | 2 (≈ 3.31 µM) | 4 (≈ 6.63 µM) | < 0.25 | < 0.25 | – |
| N#Cc1ccc(-c2ccccc2SC2=C(C(=O)O)N3C(=O)[C@@H](NC(=O)Cc4ccccc4)[C@H]3SC2)cc1 [Cmpd 23, (7R)-7-[(Phenylacetyl)amino]-3-(2-(4-cyanophenyl)phenylthio)-3-cephem-4-carboxylic acid] | < 0.25 | < 0.25 | 8 (≈ 15.2 µM) | < 0.25 | 16 (≈ 30.3 µM) | 2 (≈ 3.79 µM) | > 32 | – | – | – |
| O=C(Cc1ccccc1)N[C@@H]1C(=O)N2C(C(=O)O)=C(Sc3cccc(Cl)c3Cl)CS[C@H]12 [Cmpd 24, (7R)-7-[(Phenylacetyl)amino]-3-(2,3-dichlorophenylthio)-3-cephem-4-carboxylic acid] | < 0.25 | < 0.25 | 4 (≈ 8.07 µM) | < 0.25 | 8 (≈ 16.1 µM) | 2 (≈ 4.04 µM) | > 32 | – | – | – |
| O=C(Cc1cccs1)N[C@@H]1C(=O)N2C(C(=O)O)=C(Sc3ccccc3I)CS[C@H]12 [Cmpd 25, (7R)-7-[(2-Thienylacetyl)amino]-3-(o-iodophenylthio)-3-cephem-4-carboxylic acid] | 0.125 (≈ 0.224 µM) | – | 4 (≈ 7.16 µM) | 0.125 (≈ 0.224 µM) | 16 (≈ 28.7 µM) | 2 (≈ 3.58 µM) | > 32 | – | < 0.06 | – |
| O=C(Cc1cccs1)N[C@@H]1C(=O)N2C(C(=O)O)=C(Sc3cc(Cl)ccc3Cl)CS[C@H]12 [Cmpd 26, (7R)-7-[(2-Thienylacetyl)amino]-3-(2,5-dichlorophenylthio)-3-cephem-4-carboxylic acid] | < 0.25 | < 0.25 | 4 (≈ 7.98 µM) | < 0.25 | 8 (≈ 16 µM) | 2 (≈ 3.99 µM) | > 32 | – | – | – |
| O=C(Cc1ccccc1)N[C@@H]1C(=O)N2C(C(=O)O)=C(Sc3ccccc3-c3ccco3)CS[C@H]12 [Cmpd 27, (7R)-7-[(Phenylacetyl)amino]-3-(2-(2-furyl)phenylthio)-3-cephem-4-carboxylic acid] | < 0.25 | < 0.25 | 4 (≈ 8.12 µM) | < 0.25 | 16 (≈ 32.5 µM) | 1 (≈ 2.03 µM) | > 32 | – | – | – |
| O=C(Cc1ccccc1)N[C@@H]1C(=O)N2C(C(=O)O)=C(Sc3ccc(Cl)cc3Cl)CS[C@H]12 [Cmpd 28, (7R)-7-[(Phenylacetyl)amino]-3-(2,4-dichlorophenylthio)-3-cephem-4-carboxylic acid] | < 0.25 | < 0.25 | 4 (≈ 8.07 µM) | < 0.25 | 8 (≈ 16.1 µM) | 2 (≈ 4.04 µM) | > 32 | – | – | – |
| COc1ccc(CC(=O)N[C@@H]2C(=O)N3C(C(=O)O)=C(Sc4ccccc4I)CS[C@H]23)cc1 [Cmpd 29, (7R)-7-[(p-Methoxyphenylacetyl)amino]-3-(o-iodophenylthio)-3-cephem-4-carboxylic acid] | < 0.25 | < 0.25 | 4 (≈ 6.87 µM) | < 0.25 | 16 (≈ 27.5 µM) | 1 (≈ 1.72 µM) | > 32 | – | – | – |
| O=C(COc1ccc(Cl)cc1)N[C@@H]1C(=O)N2C(C(=O)O)=C(Sc3ccccc3I)CS[C@H]12 [Cmpd 30, (7R)-7-[(p-Chlorophenoxyacetyl)amino]-3-(o-iodophenylthio)-3-cephem-4-carboxylic acid] | < 0.25 | < 0.25 | 2 (≈ 3.32 µM) | < 0.25 | 4 (≈ 6.64 µM) | 1 (≈ 1.66 µM) | > 32 | – | – | 13 (≈ 21.6 µM) |
| O=C(COc1ccc(Cl)cc1)N[C@@H]1C(=O)N2C(C(=O)O)=C(Sc3cc(Cl)ccc3Cl)CS[C@H]12 [Cmpd 31, (7R)-7-[(p-Chlorophenoxyacetyl)amino]-3-(2,5-dichlorophenylthio)-3-cephem-4-carboxylic acid] | < 0.25 | < 0.25 | 4 (≈ 7.33 µM) | < 0.25 | 8 (≈ 14.7 µM) | 4 (≈ 7.33 µM) | > 32 | – | – | – |
| COc1ccc(CC(=O)N[C@@H]2C(=O)N3C(C(=O)O)=C(Sc4cc(Cl)ccc4Cl)CS[C@H]23)cc1 [Cmpd 32, (7R)-7-[(p-Methoxyphenylacetyl)amino]-3-(2,5-dichlorophenylthio)-3-cephem-4-carboxylic acid] | < 0.25 | < 0.25 | 4 (≈ 7.61 µM) | < 0.25 | 16 (≈ 30.5 µM) | 2 (≈ 3.81 µM) | > 32 | – | – | – |
| O=C(Cc1ccccc1)N[C@@H]1C(=O)N2C(C(=O)O)=C(Sc3cc(F)ccc3Br)CS[C@H]12 [Cmpd 33, (7R)-7-[(Phenylacetyl)amino]-3-(2-bromo-5-fluorophenylthio)-3-cephem-4-carboxylic acid] | < 0.25 | < 0.25 | 4 (≈ 7.64 µM) | < 0.25 | 16 (≈ 30.6 µM) | 1 (≈ 1.91 µM) | > 32 | – | – | – |
| O=C(Cc1ccccc1)N[C@@H]1C(=O)N2C(C(=O)O)=C(Sc3cccc4ccccc34)CS[C@H]12 [Cmpd 54, (7R)-7-[(Phenylacetyl)amino]-3-(1-naphthalenylthio)-3-cephem-4-carboxylic acid] | < 0.25 | < 0.25 | 8 (≈ 16.8 µM) | < 0.25 | 16 (≈ 33.6 µM) | 4 (≈ 8.39 µM) | > 32 | – | – | > 32 |
